This note sets out measurements from article PMC5048153 (Scientific Reports, 2016).

Experiment [1] relates to HEK293 cells. Nature of the experiment: Cytotoxicity on HEK293 cells (MTT). The format is cell-based, human. The note with it: after treatment; for inhibition at 100 µM: Homo sapiens, HEK293, 100μM, read-out: IR (inhibitory rate) HEK293; for IR (inhibitory rate) HEK293: 100μM. The procedure:
(§1) Human normal hepatic L02 cells, human embryonic kidney cell line 293 cells (HEK293) and Rattus myoblast cell line H9C2 cells were respectively seeded in 96-well plates at a density of 4 × 10^3 cells per well and cultured in the 1640 or DMEM medium, with the supplement of 10% fetal bovine serum, penicillin (100 unit/ml), streptomycin (100 μg/ml) in a humidified incubator with 5% CO2 for 24 h. […] The cytotoxicities of the compounds were evaluated by MTT method.

For experiment [2], the system named is L02 cells. Nature of the experiment: Cytotoxicity on L02 cells (MTT). The note with it: after treatment; for inhibition at 100 µM: Homo sapiens, L02, 100μM, read-out: IR (inhibitory rate) L02; for IR (inhibitory rate) L02: 100μM. The format is cell-based, human. The procedure: as §1
Experiment [3] relates to corticosterone-injured PC12 cells. Nature of the experiment: Protective effects on corticosterone-injured PC12 cells (MTT). The note with it: 24 h after treatment; for PR (protection rate), Table S1: 1.25µM; for PR (protection rate): 200 μM corticosterone. Further details: key to PR (protection rate), Table S1: compounds did not shown protection effects on corticosterone-injured PC12 cells. It is filed as cell-based, rat. The procedure: PC12 cells were purchased from American Type Culture Collection and were maintained in DMEM medium supplemented with penicillin (100 unit/ml), streptomycin (100 μg/ml), 5% fetal bovine serum (FBS), and 10% horse serum at 37 °C in humidified atmosphere with 5% CO2. The detailed procedures were performed referring to the reported literatures. Briefly, PC12 cells of logarithmic growth phase were collected, re-suspended and then seeded at a density of 1 × 10^5 cells per well in 96-well plates and cultured in the DMEM medium with 5% horse serum, 10% FBSfor 24 h.
After incubation with compounds, 20 μl of 5 mg/ml MTT solution was added to each well and cultured at 37 °C for 2 h–4 h. Then, the culture medium was removed, and 150 μl dimethyl sulfoxide(DMSO) was added to each well for 15 min at room temperature. The absorbance of each well was measured at 570 nm using a microplate reader. The protective rates (PR) were calculated according to equation (1).

Counter-ions that a name gives are not always drawn.

Consider `COc1ccc2c(c1)C(CCNC(=O)c1ccc(C)cc1)=NCC2.O=C(O)C(=O)O` [6a-25, N-(2-(7-Methoxy-3,4-dihydroisoquinolin-1-yl)ethyl)-4-methylbenzamide oxalate], for which the inhibition at 100 µM is 65.7% in experiment [1] and 50.8% in experiment [2]. Moreover, the “PR (protection rate), Table S1” value in experiment [3] is recorded as “-”.
Take `COc1ccc2c(c1)C(CCNC(=O)Nc1ccc(Cl)c(Cl)c1)=NCC2.O=C(O)C(=O)O` [6b-18, 1-(3,4-Dichlorophenyl)-3-(2-(7-methoxy-3,4-dihydroisoquinolin-1-yl)ethyl)urea oxalate]: the figures for the inhibition at 100 µM in experiment [1] and in experiment [2] were 56.1% and 57.5%, respectively. The “PR (protection rate), Table S1” value in experiment [3] is recorded as 12.8%. Further, in experiment [3] (1.25 μM), the “PR (protection rate)” value is reported as “above 10%”.
Consider `COc1ccc2c(c1)C(CCNC(=O)c1ccc(C(C)=O)cc1)=NCC2` [6a-16, 4-Acetyl-N-(2-(7-methoxy-3,4-dihydroisoquinolin-1-yl)ethyl) benzamideoxalate], for which the inhibition at 100 µM in experiment [1] and in experiment [2] was less than 20% in each case. The “PR (protection rate), Table S1” value in experiment [3] was found to be 6.1%.
On to `COc1ccc2c(c1)C(CCNC(=O)NC1CC1)=NCC2.O=C(O)C(=O)O` [6b-1, 1-Cyclopropyl-3-(2-(7-methoxy-3,4-dihydroisoquinolin-1-yl)ethyl)urea oxalate], for which the values for the inhibition at 100 µM in experiment [1] and in experiment [2] were 19.5% and 27.2%, respectively. For the same compound, the “PR (protection rate), Table S1” value in experiment [3] is on record as “-”.
For `COc1ccc2c(c1)C(CCNC(=O)c1cccnc1)=NCC2.O=C(O)C(=O)O` [6a-23, N-(2-(7-Methoxy-3,4-dihydroisoquinolin-1-yl)ethyl)nicotinamide oxalate] the same measures were 57.8%, 66.9% and “-”.
`COc1ccc2c(c1)C(CCNC(=O)Nc1ccc(Br)cc1)=NCC2` [6b-21, 1-(4-Bromophenyl)-3-(2-(7-methoxy-3,4-dihydroisoquinolin-1-yl)ethyl)ureaoxalate]: the values for the inhibition at 100 µM in experiment [1] and in experiment [2] were 41.2% and 38.3%, respectively. The “PR (protection rate), Table S1” value in experiment [3] is recorded as “-”.
For the compound `COc1ccc2c(c1)C(CCNC(=O)Nc1nccs1)=NCC2.O=C(O)C(=O)O` [6b-17, 1-(2-(7-Methoxy-3,4-dihydroisoquinolin-1-yl)ethyl)-3-(thiazol-2-yl)urea oxalate], the inhibition at 100 µM stood at 21.9% in experiment [1] and 20.1% in experiment [2]. Further, the “PR (protection rate), Table S1” value in experiment [3] amounted to 13.9%. For the same compound, the “PR (protection rate)” value in experiment [3] (1.25 μM) is recorded as “above 10%”.
For `COc1ccc2c(c1)C(CCNC(=O)Nc1cccc3ccccc13)=NCC2.O=C(O)C(=O)O` [6b-13, 1-(2-(7-Methoxy-3,4-dihydroisoquinolin-1-yl)ethyl)-3-(naphthalen-1-yl)urea oxalate], the inhibition at 100 µM in experiment [1] and in experiment [2] was less than 20% each time. Moreover, the “PR (protection rate), Table S1” value in experiment [3] is given as “-”.
Regarding “2-((2-(7-Methoxy-3,4-dihydroisoquinolin-1-yl)ethyl)carbamoyl)phenylacetate oxalate [6a-20]”, the “IR (inhibitory rate) HEK293” value in experiment [1] is listed as 57.1%. Also, the “IR (inhibitory rate) L02” value in experiment [2] amounted to 54.9%. Further, the “PR (protection rate), Table S1” value in experiment [3] was “-”.
In the case of `COc1ccc2c(c1)C(CCNC(=O)c1ccc(Br)nc1)=NCC2.O=C(O)C(=O)O` [6a-31, 6-Bromo-N-(2-(7-methoxy-3,4-dihydroisoquinolin-1-yl)ethyl)nicotinamide oxalate], the values for the inhibition at 100 µM in experiment [1] and in experiment [2] were 56.1% and 46.1%, respectively. Also, in experiment [3], the “PR (protection rate), Table S1” value stood at 0.2%.
“2-(3-(2-(7-Methoxy-3,4-dihydroisoquinolin-1-yl)ethyl)ureido)thiazole-5-carboxylate oxalate [6b-8]”: the “IR (inhibitory rate) HEK293” value in experiment [1] was determined as 49.2%. Moreover, the “IR (inhibitory rate) L02” value in experiment [2] was determined as 50.0%. Besides, the “PR (protection rate), Table S1” value in experiment [3] is “-”.
Consider `COc1ccc(C(=O)NCCC2=NCCc3ccc(OC)cc32)cc1` [6a-6, 4-Methoxy-N-(2-(7-methoxy-3,4-dihydroisoquinolin-1-yl)ethyl) benzamideoxalate], for which the inhibition at 100 µM is 34.1% in experiment [1] and 24.9% in experiment [2]. In experiment [3], the “PR (protection rate), Table S1” value was “-”.
As to “1-(3,5-Dimethylpyridin-4-yl)-3-(2-(7-methoxy-3,4-dihydroisoquinolin-1-yl)ethyl)urea oxalate [6b-11]”, the “IR (inhibitory rate) HEK293” value in experiment [1] is 28.1%. In addition, the “IR (inhibitory rate) L02” value in experiment [2] is on record as 27.3%. In addition, the “PR (protection rate), Table S1” value in experiment [3] is on record as “-”.
Turning to `COc1ccc2c(c1)C(CCNC(=O)c1ccccc1)=NCC2.O=C(O)C(=O)O` [6a-10, N-(2-(7-Methoxy-3,4-dihydroisoquinolin-1-yl)ethyl)benzamide oxalate], the inhibition at 100 µM is 27.6% in experiment [1] and 22.5% in experiment [2]. Besides, the “PR (protection rate), Table S1” value in experiment [3] is “-”.
As to `COc1ccc2c(c1)C(CCNC(=O)c1cc(C(F)(F)F)ccc1Br)=NCC2.O=C(O)C(=O)O` [6a-28, 2-Bromo-N-(2-(7-methoxy-3,4-dihydroisoquinolin-1-yl)ethyl)-5-(trifluoromethyl)benzamide oxalate], the inhibition at 100 µM was determined as 58.5% in experiment [1] and 43.7% in experiment [2]. Further, the “PR (protection rate), Table S1” value in experiment [3] is listed as 2.4%.
The corresponding values for `COc1ccc2c(c1)C(CCNC(=O)c1ccc(C(C)C)cc1)=NCC2` [6a-13, 4-Isopropyl-N-(2-(7-methoxy-3,4-dihydroisoquinolin-1-yl)ethyl) benzamide oxalate] are 57.6%, 43% and “-”.
With `COc1ccc2c(c1)C(CCNC(=O)C1CC1)=NCC2` [6a-4, N-(2-(7-Methoxy-3,4-dihydroisoquinolin-1-yl)ethyl) cyclopropanecarboxamideoxalate], the inhibition at 100 µM in experiment [1] is 46.2%; in experiment [2], less than 0%. Besides, the “PR (protection rate), Table S1” value in experiment [3] is listed as “-”.
On to `CCC(=O)NCCC1=NCCc2ccc(OC)cc21.O=C(O)C(=O)O` [6a-2, N-(2-(7-Methoxy-3,4-dihydroisoquinolin-1-yl)ethyl) propionamide oxalate], for which the results for the inhibition at 100 µM in experiment [1] and in experiment [2] were 23.4% and 12.4%, respectively. Further, the “PR (protection rate)” value is 3.1% in experiment [3] (5 μM) and 18.1% in experiment [3] ([…]).
For the compound `COc1ccc2c(c1)C(CCNC(=O)NC(C)C)=NCC2` [6b-10, 1-Isopropyl-3-(2-(7-methoxy-3,4-dihydroisoquinolin-1-yl)ethyl)urea oxalate], the inhibition at 100 µM in experiment [1] was determined as 34.7%; in experiment [2], 31.9%.
With `COc1ccc2c(c1)C(CCNC(=O)Nc1ccc(Cl)c(C(F)(F)F)c1)=NCC2` [6b-9, 1-(4-Chloro-3-(trifluoromethyl)phenyl)-3-(2-(7-methoxy-3,4-dihydroisoquinolin-1-yl)ethyl)urea oxalate], the inhibition at 100 µM in experiment [1] amounted to 31.6%; in experiment [2] it was 25.7%.
For `COc1ccc2c(c1)C(CCNC(=O)Nc1ccc(Cl)cc1[N+](=O)[O-])=NCC2` [6b-16, 1-(4-Chloro-2-nitrophenyl)-3-(2-(7-methoxy-3,4-dihydroisoquinolin-1-yl)ethyl)urea oxalate] the same measures were 52% and 53.2%.
